The values below are quoted from earlier work in patent US8263630B2, “1,2,3-triazoles as 11-beta hydroxysteroid dehydrogenase type I inhibitors” (Bristol-Myers Squibb Company, priority 2008, dated 2012).

The target in the data set is T1, 11beta-HSD1 (Homo sapiens, UniProt P28845).
T1 construct: host or cells: human patients (liver), in vivo
To be noted: mildly overweight individuals with type 2 diabetes; seven day treatment; versus placebo.

T1 sequence (P28845 whole entry): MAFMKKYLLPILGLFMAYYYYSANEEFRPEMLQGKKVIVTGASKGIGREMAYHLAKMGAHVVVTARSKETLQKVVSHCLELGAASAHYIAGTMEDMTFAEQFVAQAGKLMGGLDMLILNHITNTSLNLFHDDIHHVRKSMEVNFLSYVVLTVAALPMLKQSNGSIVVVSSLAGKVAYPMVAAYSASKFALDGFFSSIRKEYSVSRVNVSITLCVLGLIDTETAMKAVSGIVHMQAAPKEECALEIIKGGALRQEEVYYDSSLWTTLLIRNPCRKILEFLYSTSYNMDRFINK

For `CC1(C)[C@@H](OC(=O)CCC(=O)O)CC[C@]2(C)[C@H]3C(=O)C=C4[C@@H]5C[C@@](C)(C(=O)O)CC[C@]5(C)CC[C@@]4(C)[C@]3(C)CC[C@@H]12` [carbenoxolone], the hepatic glucose production result is given as “decrease in hepatic glucose production”.
